Patent US9045450B2, “Method for chemical synthesis of antrocin and use thereof for suppressing non-small cell lung cancer” (KAIYEW INVESTMENT CORP., priority 2011, dated 2015)

Test system: H441 lung cancer cells
Assay: Microarray analysis of gene transcription in H441 cells after antrocin treatment
Type: cell-based, Homo sapiens
Conditions: 12 hours
Description: (§1) The present invention further investigated the effect of antrocin on cancer cells at the genetic level. After H441 cells had been treated with 5 μM antrocin for 12 hours, the effect of antrocin on genetic transcription was analyzed. Only those genes whose expressions were inhibited 3.5 times or more were analyzed as target genes by GeneSpring software package and the results were presented using a tree diagram (FIG. 5). […] These genes play important roles in cell proliferations, inflammatory responses, metastases, invasions, angiogenesis, and cell cycle regulations. […] These genes are associated with transcription factor NF-kB, for example cytokines (IFI44, IFIT1, MX1), inflammatory responses (NFkB1 and IFIT2), stem cell properties (CTNNBL1, SENP2, CEACAM1 and POU5F2), and drug resistance reactions (ABCB5, ABCG2 and XAF1), etc. Based on the aforementioned microarray results, the present invention further investigated protein expressions associated with inflammation related factors, stem cell properties, and drug resistance related molecules.
as §1, with “effect of Antrocin on genetic” for “effect of antrocin on genetic”, “a tree diagram. STRING9.0 software package was also used to predict the effect of antrocin on the signaling pathway of H441 cells and possible target genes to be inhibited (FIG. 5).” for “a tree diagram (FIG. 5).”, “example cytokines (1F144, IFIT1, MX1),” for “example cytokines (IFI44, IFIT1, MX1),”, “further investigated inflammatory responses, stem cell” for “further investigated protein expressions associated with inflammation related factors, stem cell”, “properties, and multidrug resistance-associated protein expressions.” for “properties, and drug resistance related molecules.”

Structure (SMILES): C=C1CC[C@H]2C(C)(C)CCC[C@@]23C(=O)OC[C@@H]13 [antrocin]
- number of genes whose expressions were significantly affected (5 μM antrocin): more than 100 genes
- Multiple (reduction of gene expression) (ABCB5, probe 8137310, 5 μM antrocin): 3.62
- Multiple (reduction of gene expression) (ABCG2, probe 8101675, 5 μM antrocin): 3.93
- Multiple (reduction of gene expression) (AKT1S1, probe 8038477, 5 μM antrocin): 10.29
- Multiple (reduction of gene expression) (ANG, probe 7973084, 5 μM antrocin): 4.24
- Multiple (reduction of gene expression) (CDC14C, probe 8132803, 5 μM antrocin): 5.49
- Multiple (reduction of gene expression) (CEACAM1, probe 8037205, 5 μM antrocin): 4.99
- Multiple (reduction of gene expression) (CXCL10, probe 8101126, 5 μM antrocin): 4.62
- Multiple (reduction of gene expression) (EDG7, probe 7917276, 5 μM antrocin): 3.75
- Multiple (reduction of gene expression) (EPSTI1, probe 7971296, 5 μM antrocin): 5.61
- Multiple (reduction of gene expression) (FLJ35880, probe 8082585, 5 μM antrocin): 5.48
- Multiple (reduction of gene expression) (FOSL1, probe 7949532, 5 μM antrocin): 9.93
- Multiple (reduction of gene expression) (GDPD1, probe 8008802, 5 μM antrocin): 3.73
- Multiple (reduction of gene expression) (IFI16, probe 7906400, 5 μM antrocin): 4.9
- Multiple (reduction of gene expression) (IFI44, probe 7902553, 5 μM antrocin): 8.3
- Multiple (reduction of gene expression) (IFIT1, probe 7929065, 5 μM antrocin): 5.28
- Multiple (reduction of gene expression) (IFIT2, probe 7929047, 5 μM antrocin): 4.44
- Multiple (reduction of gene expression) (IFITM2, probe 7937330, 5 μM antrocin): 6.16
- Multiple (reduction of gene expression) (LAMP3, probe 8092348, 5 μM antrocin): 3.8
- Multiple (reduction of gene expression) (LBA1, probe 8086125, 5 μM antrocin): 4.35
- Multiple (reduction of gene expression) (LILRA3, probe 8039226, 5 μM antrocin): 4.58
- Multiple (reduction of gene expression) (MX1, probe 8068713, 5 μM antrocin): 5.42
- Multiple (reduction of gene expression) (NFKB1, probe 8096635, 5 μM antrocin): 3.85
- Multiple (reduction of gene expression) (OAS2, probe 7958913, 5 μM antrocin): 5.91
- Multiple (reduction of gene expression) (OASL, probe 7967117, 5 μM antrocin): 4.09
- Multiple (reduction of gene expression) (OR1L8, probe 8163960, 5 μM antrocin): 3.83
- Multiple (reduction of gene expression) (PARP9, probe 8090018, 5 μM antrocin): 4.03
- Multiple (reduction of gene expression) (PARP14, probe 8082100, 5 μM antrocin): 4.3
- Multiple (reduction of gene expression) (POU5F2, probe 8113094, 5 μM antrocin): 3.9
- Multiple (reduction of gene expression) (PPARGC1A, probe 8099633, 5 μM antrocin): 4.44
- Multiple (reduction of gene expression) (RTP4, probe 8084732, 5 μM antrocin): 4.6
- Multiple (reduction of gene expression) (SAMD9L, probe 8140971, 5 μM antrocin): 4.08
- Multiple (reduction of gene expression) (SENP2, probe 8084607, 5 μM antrocin): 8.9
- Multiple (reduction of gene expression) (SIGLEC5, probe 8038877, 5 μM antrocin): 4.94
- Multiple (reduction of gene expression) (SLFN5, probe 8006531, 5 μM antrocin): 3.65
- Multiple (reduction of gene expression) (TAX1BP3, probe 8011407, 5 μM antrocin): 7.15
- Multiple (reduction of gene expression) (TNFSF10, probe 8092169, 5 μM antrocin): 4.09
- Multiple (reduction of gene expression) (TRIM22, probe 7938035, 5 μM antrocin): 7.65
- Multiple (reduction of gene expression) (XAF1, transcript variant 1, probe 8004184, 5 μM antrocin): 12.61
- Multiple (reduction of gene expression) (ZC3H6, probe 8044450, 5 μM antrocin): 3.5
- Multiple (reduction of gene expression) (cDNA DKFZp451O2417, probe 7902541, 5 μM antrocin): 10.74
- Multiple (reduction of gene expression) (catenin, beta like 1 (TNNBL1), probe 8062409, 5 μM antrocin): 3.59
